{
  "source": "patent US9975879B2",
  "about": "“Beta lactams as modulators of glutamate uptake and methods for use thereof” (Temple University of the Commonwealth System of Higher …, priority 2013, dated 2018)",
  "key": {"GLT-1 [1]": {"test_system": "GLT-1", "details": "cited from earlier work; for expression of GLT-1: SOD1 mouse model of ALS"}, "GLT-1 [2]": {"test_system": "GLT-1", "details": "50 mg/kg daily IP, last 6 days of extinction training; cocaine self-administering rats; nucleus accumbens core, normalized to calnexin; FIG. 1"}, "[3]": {"details": "Nakagura et al. (2005); cited from earlier work"}, "[4]": {"test_system": "amyotrophic lateral sclerosis", "details": "50 mg daily; after 15 months of treatment; cited from earlier work"}, "[5]": {"details": "cited from earlier work"}, "GLT-1 [6]": {"test_system": "GLT-1", "details": "Rothstein et al., 2005; Lee et al., 2008; cited from earlier work"}, "[7]": {"details": "rats; Sari et al., 2009; Knackstead et al., 2010; cited from earlier work"}, "GLT-1 [8]": {"test_system": "GLT-1", "details": "decreased by repeated cocaine administration; cited from earlier work"}, "[9]": {"test_system": "cysteine-glutamate exchanger", "details": "decreased by repeated cocaine administration; cited from earlier work"}, "planarian": {"test_system": "planarian", "details": "planarian model; Rawls et al., 2008; cited from earlier work"}},
  "note": "Read-outs that look alike come from different tables or passages of the source.",
  "data": [
    {"compound": "COc1ccc2c(c1)[nH]c1c(C)nccc12", "note": "[Harmine]", "values": [
      {"measurement": "expression of GLT-1", "setting": "GLT-1 [1]", "value": "increases GLT-1 expression"}
    ]},
    {"compound": "C[C@@H](O)[C@H]1C(=O)N[C@@H]1[C@@H](C)C(=O)N1CCN(C)CC1", "note": "[MC-100093]", "values": [
      {"measurement": "GLT-1 expression", "setting": "GLT-1 [2]", "value": "restored GLT-1 expression levels to normal"}
    ]},
    {"compound": "CC1CC=NN1C(=O)c1cccnc1", "note": "(stereo not shown) [MS-153]", "values": [
      {"measurement": "conditioned place preference induced by cocaine", "setting": "[3]", "value": "inhibited the conditioned place preference induced by cocaine"}
    ]},
    {"compound": "Nc1nc2ccc(OC(F)(F)F)cc2s1", "note": "[Riluzole]", "values": [
      {"measurement": "increase in life expectancy", "setting": "[4]", "value": "2-3 months"}
    ]},
    {"compound": "CO/N=C(\\C(=O)N[C@@H]1C(=O)N2C(C(=O)O)=C(CSc3nc(=O)c(=O)[nH]n3C)CS[C@H]12)c1csc(N)n1", "note": "[ceftriaxone]", "values": [
      {"measurement": "free, unbound cerebrospinal fluid/plasma ratio based on Cmax", "setting": "[5]; Chadwick et al., 1983", "value": "2-13%"},
      {"measurement": "free, unbound cerebrospinal fluid/plasma ratio based on AUCs", "setting": "[5]; Lutsar and Friedland, 2000", "value": 1, "unit": "%"},
      {"measurement": "GLT-1 expression", "setting": "GLT-1 [6]", "value": "stimulator of GLT-1 expression"},
      {"measurement": "relapse to cocaine seeking", "setting": "[7]", "value": "prevents relapse to cocaine seeking"},
      {"measurement": "GLT-1 levels", "setting": "GLT-1 [8]", "value": "restores"},
      {"measurement": "cysteine-glutamate exchanger levels", "setting": "[9]", "value": "restores"},
      {"measurement": "expression of GLT-1", "setting": "GLT-1 [1]", "value": "increases the expression of GLT-1"},
      {"measurement": "mean survival time", "setting": "GLT-1 [1]; SOD1 mouse", "value": "increases the mean survival time"},
      {"measurement": "abstinence withdrawal from cocaine", "setting": "planarian", "value": "inhibits abstinence withdrawal from cocaine"}
    ]}
  ]
}
